“And” between values parts separate entries of the source, which are not always exact repeats. Equal values may be shown once.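 Dose response: 5 concentrations. Exposure: 48 h. Format: 96-well plates. Endpoint: linear interpolation; highest concentration if not reached. At the GI50, growth is halved. TGI: concentration producing complete growth inhibition.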
Legend:
Assay in all cases: inhibition of tumour cell growth, NCI panel, 48 h
NCI/ADR-RES ovarian = tested on: NCI/ADR-RES ovarian
SF-539 CNS = tested on: SF-539 CNS
UACC-257 melanoma = tested on: UACC-257 melanoma
A549 NSCLC = tested on: A549 NSCLC
SF-295 CNS = tested on: SF-295 CNS
786-0 renal = tested on: 786-0 renal
SW-620 colon = tested on: SW-620 colon
IGROV1 ovarian = tested on: IGROV1 ovarian
M14 melanoma = tested on: M14 melanoma
SNB-75 CNS = tested on: SNB-75 CNS

SMILES | TGI (NCI/ADR-RES ovarian) | TGI (SF-539 CNS) | TGI (UACC-257 melanoma) | TGI (A549 NSCLC) | TGI (SF-295 CNS) | TGI (786-0 renal) | TGI (SW-620 colon) | TGI (IGROV1 ovarian) | TGI (M14 melanoma) | TGI (SNB-75 CNS) | GI50 (NCI/ADR-RES ovarian) | GI50 (SF-539 CNS) | GI50 (UACC-257 melanoma) | GI50 (A549 NSCLC) | GI50 (SF-295 CNS) | GI50 (SNB-75 CNS) | GI50 (SW-620 colon) | GI50 (IGROV1 ovarian)
c1ccc(COc2ncccc2C2SCCCS2)cc1 | > 100 µM | > 100 µM | > 100 µM | > 100 µM | > 100 µM | > 100 µM | > 100 µM | > 100 µM | > 100 µM | – | – | – | – | – | – | – | – | –
C=C1C(=O)C[C@@]23CCC[C@@]12CC(O)C3 (some centres undefined) | 42.8 µM | 61.3 µM | 52.3 µM | > 100 µM | > 100 µM | – | 37.2 µM | 12.8 µM | – | 48.7 µM | – | – | – | – | – | – | – | –
COC(=O)CNC(=O)/C=C/[C@H](O[Si](C)(C)C(C)(C)C)[C@H](/C=C/C(=O)NCC(=O)OC)O[Si](C)(C)C(C)(C)C | > 25 µM | > 25 µM | > 25 µM | > 25 µM | > 25 µM | > 25 µM | > 25 µM | > 25 µM | – | > 25 µM | – | – | – | – | – | – | – | –
CSC1(SC)CCCCCCCCCCC1 | > 100 µM | > 100 µM | 74 µM | > 100 µM | 97.1 µM | > 100 µM | > 100 µM | > 100 µM | > 100 µM | – | – | – | – | – | – | – | – | –
COc1cc2cc3c4c(cc(OC)c(OC)c4c2cc1OC)CCN3C(=O)OCCBr | – | > 100 µM | > 100 µM | > 100 µM | > 100 µM | > 100 µM | > 100 µM | > 100 µM | – | > 100 µM | – | – | – | – | – | – | – | –
COc1cc2c(c(OC)c1OC)-c1ccc(SC)c(=O)cc1[C@@H](NC(=O)c1ccc(C#N)cc1)CC2 | – | < 0.01 µM | > 100 µM | > 100 µM | < 0.01 µM | 20.9 µM | > 100 µM | > 100 µM | – | 92.4 µM | – | – | – | – | – | – | – | –
CCN(CC)c1ccc(C(=C2C=CC(=[N+](CC)CC)C=C2)c2ccccc2)cc1 | – | 0.269 µM | 0.18 µM | – | 0.0664 µM | 0.151 µM | 0.138 µM | 0.247 µM | 0.641 µM | 1.25 µM | – | – | – | – | – | – | – | –
C=CCOn1c(C=C)nc2c(C)cccc21 | – | – | 12.1 µM | 14.4 µM | 21 µM | 5.83 µM | 11.2 µM | 22.7 µM | 12.3 µM | 14.5 µM | – | – | – | – | – | – | – | –
COc1cc([C@@H]2c3cc4c(cc3[C@@H](Nc3ccc(Cl)cc3C(=O)c3ccccc3Cl)[C@H]3COC(=O)[C@H]23)OCO4)cc(OC)c1OC | > 37.7 µM | 0.198 µM | > 100 µM | > 100 µM | > 37.4 µM | > 100 µM | > 46.1 µM | – | > 100 µM | > 100 µM | – | – | – | – | – | – | – | –
COc1ccccc1OC/C(N=Cc1ccncc1)=N/NC(=O)c1ccncc1 | > 100 µM | > 100 µM | > 100 µM | > 100 µM | > 100 µM | > 100 µM | > 100 µM | > 100 µM | > 100 µM | – | – | – | – | – | – | – | – | –
CCOc1ccc(NC(=S)/N=C/C(C(=O)Nc2ccccc2C)=C(\C)O)cc1 | > 100 µM | > 100 µM | > 100 µM | > 100 µM | > 100 µM | > 100 µM | > 100 µM | > 100 µM | > 100 µM | – | – | – | – | – | – | – | – | –
Cc1c(-c2coc(-c3ccc(Cl)cc3)n2)c(=O)n(-c2ccccc2)n1C | – | > 100 µM | > 100 µM | > 100 µM | > 100 µM | > 100 µM | – | > 100 µM | > 100 µM | > 100 µM | – | – | – | – | – | – | – | –
C/C=C\C(CC(=O)O)CC(=O)NCCC1CN(S(=O)(=O)C(F)(F)F)c2ccccc21 (centres undefined) | > 100 µM | – | > 100 µM | > 100 µM | > 100 µM | > 100 µM | > 100 µM | > 100 µM | > 100 µM | > 100 µM | – | – | – | – | – | – | – | –
CC(=O)Nc1ccc(C(=O)N2N=C(C)/C(=C/c3cccc(O)c3)C2=O)cc1 | – | > 100 µM | > 100 µM | > 100 µM | > 100 µM | > 100 µM | > 100 µM | – | > 100 µM | > 100 µM | – | – | – | – | – | – | – | –
COc1cc(/C=C2\C[C@H]3[C@@H]4CC=C5C[C@@H](N6CCCC6)CC[C@]5(C)[C@H]4CC[C@]3(C)[C@H]2OC(C)=O)cc(OC)c1OC | 30.9 µM | – | 33.8 µM | 32 µM | 26.5 µM | 23.3 µM | 34.7 µM | 29.9 µM | 31.9 µM | 29.4 µM | – | – | – | – | – | – | – | –
CC(=O)c1c(O)c(C)c(O)c2c1OC1=CC(=O)C(C(C)=O)C(=O)C12C (centres undefined) | 13.5 µM and 55.7 µM | 18.4 µM and 23.5 µM | 22.7 µM and 64.5 µM | 25.1 µM and 48.4 µM | 12.4 µM and 33.8 µM | – | 41.3 µM and 86 µM | 38.5 µM and 75.4 µM | – | 21.2 µM and 49 µM | 4.05 µM and 16.7 µM | 5.09 µM and 16.3 µM | 6.02 µM and 30.4 µM | 3.77 µM and 13.8 µM | 3.48 µM and 8.79 µM | 5.97 µM and 22.5 µM | 6.44 µM and 27.5 µM | 5.63 µM and 17.9 µM

Reference: PubChem BioAssay (NCI)
